From ChEMBL document CHEMBL4673202, “Design of Potent and Druglike Nonphenolic Inhibitors for Catechol O-Methyltransferase Derived from a Fragment Screening Approach Targeting the S-Adenosyl-l-methionine Pocket” (J Med Chem, 2016) come the findings set out here.

Structures are written as SMILES. In brackets after ≈: the same amount, converted by molar mass. A value given as a limit tells only on which side of the number the result lay.

Broadly, the logD is the decadic logarithm of the distribution of all forms, ionised or not, between an organic phase and buffer at a given pH. Higher therefore signals higher lipophilicity. The solubility is the concentration that dissolves in the medium under given conditions. A low value points to little dissolved substance. As a reminder, the IC50 is the concentration at which inhibition is half-maximal.

Series [1] can be described thus: Distribution coefficient, log D of compound in octanol and water at pH 7.4. Format: physicochemical.
The nature of series [2]: Solubility of compound. It counts as physicochemical.
Series [3] concerns the target T1, Catechol O-methyltransferase (Homo sapiens, UniProt P21964).
T1 sequence (P21964 whole entry): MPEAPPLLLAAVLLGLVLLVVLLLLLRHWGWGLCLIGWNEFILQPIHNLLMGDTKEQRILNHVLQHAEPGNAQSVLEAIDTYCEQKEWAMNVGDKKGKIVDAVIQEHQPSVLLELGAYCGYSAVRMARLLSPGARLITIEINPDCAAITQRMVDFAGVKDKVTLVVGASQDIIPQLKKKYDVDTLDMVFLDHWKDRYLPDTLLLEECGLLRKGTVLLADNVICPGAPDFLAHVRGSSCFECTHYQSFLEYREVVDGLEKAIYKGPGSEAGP
The series can be described thus: Inhibition of recombinant wild-type human COMT expressed in Escherichia coli BL21 using 4-nitrocatechol-Alexa488 as substrate in presence of cofactor SAM preincubated for 1 min followed by substrate addition and measured every 60 sec up to 180 times by fluorescence based microtiter plate reader analysis.

With `CCC(c1ccccc1)c1cc(-c2sc(C)nc2C)n[nH]1` (stereo not given), the pH-dependent lipophilicity (logD) in series [1] turned out to be 4.3. In series [2], this compound showed a solubility of 24 µg/mL (≈ 80.7 µM). In addition, the IC50 in series [3] is 21000 nM.

As for `c1ccc(-c2ncc(-c3cc[nH]n3)s2)cc1`, the 50% inhibitory concentration (IC50) in series [3] was more than 625000 nM.

In the case of `Cc1nc(Cc2ccccc2)sc1-c1cc[nH]n1`, in series [3], the 50% inhibitory concentration (IC50) was more than 425000 nM.

In series [1], `Cc1nc(C)c(-c2cc(Cc3ccccc3)[nH]n2)s1` registered a logD of 3.6. The compound also gave a solubility in series [2] of 15 µg/mL (≈ 55.7 µM). In addition, the IC50 in series [3] turned out to be 2000 nM.

Consider `Cc1nc(C)c(-c2cc([C@H](C)c3ccccc3)[nH]n2)s1`, for which, in series [1], the pH-dependent lipophilicity (logD) was determined as 4. In series [2], this compound gave a solubility of 5 µg/mL (≈ 17.6 µM). The IC50 in series [3] came to 700 nM.

As to `Cc1nc(C)c(-c2cc(Cc3ccc(-c4ccccc4)cc3)[nH]n2)s1`, the IC50 in series [3] stood at 3200 nM.

With `Cc1ccc(-c2nc(C)c(-c3cc[nH]n3)s2)cc1`, the IC50 in series [3] was found to be 11000 nM.

`CCc1nc(C)c(-c2cc[nH]n2)s1`: the concentration for half-maximal inhibition (IC50) in series [3] stood at 21000 nM.

In series [1], `Cc1nc(C)c(-c2cc(C(C)(C)c3ccccc3)[nH]n2)s1` had a log distribution coefficient (logD) of 4.1. For the same compound, the solubility in series [2] is 4 µg/mL (≈ 13.4 µM). Moreover, in series [3], the IC50 is 1100 nM.

With `Cc1nc(C2CC2)c(-c2cc[nH]n2)s1`, the IC50 in series [3] is more than 625000 nM.

Turning to `Cc1nc(-c2ccccc2)sc1-c1cc[nH]n1`, the IC50 in series [3] came out at 24000 nM.

Turning to `Cc1nc(C)c(-c2cc(CCc3ccccc3)[nH]n2)s1`, the pH-dependent lipophilicity (logD) in series [1] was 4. Moreover, the solubility in series [2] was 4 µg/mL (≈ 14.1 µM). Also, in series [3], the 50% inhibitory concentration (IC50) is 8000 nM.

As to `Cc1nc(C)c(-c2cc([C@@H](C)c3ccccc3)[nH]n2)s1`, the half-inhibitory concentration (IC50) in series [3] turned out to be 1100 nM.

Turning to `Cc1nc(C)c(-c2cc(C3(c4ccccc4)CC3)[nH]n2)s1`, the logD in series [1] worked out at 4.2. The same compound had a solubility in series [2] of 1 µg/mL (≈ 3.39 µM). In addition, the IC50 in series [3] turned out to be 210 nM.

Regarding `Cc1nc(C)c(-c2cc(C(C)c3ccccc3)[nH]n2)s1` (stereo not given), the log distribution coefficient (logD) in series [1] was found to be 3.9. Besides, the solubility in series [2] came to 3 µg/mL (≈ 10.6 µM). In series [3], the concentration for half-maximal inhibition (IC50) turned out to be 900 nM.

As to `COc1ccc(C2(c3cc(-c4sc(C)nc4C)n[nH]3)CC2)cc1`, the logD in series [1] was determined as 4.1. Besides, the solubility in series [2] was found to be 2 µg/mL (≈ 6.15 µM). Further, the IC50 in series [3] was found to be 75 nM.

Regarding `Cc1nc(C)c(-c2cc(CCCc3ccccc3)[nH]n2)s1`, the logD in series [1] is 4.4. This compound came in with a solubility in series [2] of 8 µg/mL (≈ 26.9 µM). Besides, the IC50 in series [3] was 34000 nM.

For `CCc1cc(-c2sc(C)nc2C)n[nH]1`, the logD in series [1] was found to be 2.6. In series [3], the IC50 was 20000 nM.

Take `COc1ccc([C@@H](C)c2cc(-c3sc(C)nc3C)n[nH]2)cc1`: the log distribution coefficient (logD) in series [1] came out at 4. The compound also yielded a solubility in series [2] of 5 µg/mL (≈ 16 µM). Besides, the half-maximal inhibitory concentration (IC50) in series [3] was 470 nM.

As for `Cc1nc(C)c(-c2cc(-c3ccccc3)[nH]n2)s1`, in series [3], the IC50 is 130000 nM.

Regarding `Cc1nc(C)c(-c2cc(Cc3ccc(-c4cnn(C)c4)cc3)[nH]n2)s1`, the pH-dependent lipophilicity (logD) in series [1] was determined as 3.9. In series [2], this compound gave a solubility of 4 µg/mL (≈ 11.4 µM). The IC50 in series [3] was 1300 nM.

With `COc1ccc([C@H](C)c2cc(-c3sc(C)nc3C)n[nH]2)cc1`, the logD in series [1] was 3.9. In addition, the solubility in series [2] stood at 5 µg/mL (≈ 16 µM). In addition, in series [3], the concentration for half-maximal inhibition (IC50) is 860 nM.

With `COc1ccc(Cc2cc(-c3sc(C)nc3C)n[nH]2)cc1`, in series [1], the logD amounted to 3.7. This compound gave a solubility in series [2] of 2 µg/mL (≈ 6.68 µM). Further, the concentration for half-maximal inhibition (IC50) in series [3] stood at 1000 nM.
